In article PMC11306024, “Novel metabolite madeirone and neomarinone extracted from Streptomyces aculeoletus as marine antibiofilm and antifouling agents” (Frontiers in Chemistry, 2024):

Experiments:
[1] = tested on: P. batsensis; test: Antibacterial activity (growth inhibition, OD600); type: cell-based, Pseudo-oceanicola batsensis DSM 15984; settings: 48 h; for inhibition at 15.6 µg/mL: 15.60 µg/mL
Method: (§1) To assess antimicrofouling activity, we selected five marine bacterial species as models: Marinobacter hydrocarbonoclasticus DSM 8798 (ATCC 49840), C. marina DSM 4741, Phaeobacter inhibens DSM 17,395, Pseusooceanicola batsensis DSM 15,984, and Micrococcus luteus DSM 20030 (ATCC 4698) ([Michael et al., 2016]). These strains, sourced from DSMZ (Leibniz Institute DSMZ—German Collection of Microorganisms and Cell Cultures), were cultured in liquid marine broth (Carl Roth GmbH, Karlsruhe, Germany) with agitation at 180 rpm or on agar-supplemented marine broth. Incubation temperatures were set at 28°C for M. hydrocarbonoclasticus and Cobetia marina, 30°C for P. inhibens and P. batsensis, while M. luteus was maintained at 37°C in Brain Heart Infusion broth (BHI, Becton Dickinson, GmbH, Heidelberg, Germany) under similar agitation conditions.
(§2) The antibacterial efficacy of compounds (1) and (2) was assessed in 96-well polystyrene flat-bottom microplates (Nunclon Delta Surface, Thermo Scientific, Roskilde, Denmark) following established procedures ([Bauermeister et al., 2019]). In the initial screening, bacterial overnight cultures were diluted to an optical density (OD600nm) of 0.2 and incubated statically at appropriate temperatures. The cultures were treated with the following final concentrations per well: 31.25, 15.60, 7.81, 3.91, 1.95, and 0.98 μg/mL (2-fold serial dilutions) of the compounds, solubilized in DMSO, or left untreated. After 24 h (M. hydrocarbonoclasticus, C. marina) or 48 h (P. batsensis, P. inhibens, M. luteus) incubation, optical density at 600 nm (OD600) was measured using a Molecular Devices Spectra Max 190. Growth inhibition percentages were calculated relatively to untreated bacterial species, using DMSO as a negative control. CuSO4 (0.16 μg/mL), a recognized antifouling agent, was used as positive control. All assays were conducted in triplicate, and the results represent the mean and standard error of the mean (SEM). Statistical analysis was carried out using GraphPad Prism 8.0.2 (San Diego, CA, United States), employing one-way ANOVA followed by Dunnett’s multiple comparisons test against the negative control.

[2] = tested on: M. luteus; test: Antibacterial activity (growth inhibition, OD600); type: cell-based, Micrococcus luteus DSM 20030; settings: 48 h
Method: as §1, §2

[3] = tested on: P. batsensis; test: Antibiofilm activity (inhibition of biofilm formation); type: cell-based, Pseudo-oceanicola batsensis DSM 15984; settings: for inhibition at 0.98 µg/mL / inhibition at 1.95 µg/mL / inhibition at 3.91 µg/mL / inhibition at 7.81 µg/mL / inhibition at 15.6 µg/mL / inhibition at 31.25 µg/mL: 48 h; for inhibition at 15.6 µg/mL: 15.60 µg/mL
Method: as §1
(§3) The antibiofilm potential of compounds (1) and (2) against the five marine bacterial species was investigated in 96-well polystyrene flat-bottom microplates (Nunclon Delta Surface, Thermo Scientific, Roskilde, Denmark), as described previously ([Bauermeister et al., 2019]; [Pereira et al., 2020]). In the initial screening, bacterial overnight cultures were diluted to an OD600 of 0.2 and incubated statically at appropriate temperatures. The cultures were tested at 31.25, 15.60, 7.81, 3.91, 1.95, 0.98 μg/mL concentrations (2-fold serial dilutions) of compounds (1) and (2), solubilized in DMSO, or left untreated. After 24 h (M. hydrocarbonoclasticus, C. marina) or 48 h (P. batsensis, P. inhibens, M. luteus) incubation, OD600 was measured. The planktonic cells and media were discarded, and the wells were washed twice with deionized water. Biofilms were fixed, stained, and quantified by measuring the OD600 after solubilization with acetic acid. Biofilm inhibition percentages were calculated relative to untreated bacterial species, using DMSO as a negative control and CuSO4 (0.16 μg/mL), as a positive control. All assays were performed in triplicate, and the results represent the mean and standard error of the mean (SEM). Statistical analysis was conducted using GraphPad Prism 8.0.2, employing one-way ANOVA followed by Dunnett’s multiple comparisons test against the negative control.

[4] = tested on: C. marina; test: as above; type: cell-based, Cobetia marina DSM 4741; settings: for Biofilm inhibition, up to (highest over tested concentrations) C. marina: 0.98-31.25 µg/mL tested; for inhibition at 0.98 µg/mL / inhibition at 1.95 µg/mL / inhibition at 3.91 µg/mL / inhibition at 7.81 µg/mL / inhibition at 15.6 µg/mL / inhibition at 31.25 µg/mL: Cobetia marina, 24 h; for inhibition at 15.6 µg/mL: 15.60 µg/mL
Method: as §1, §3

[5] = tested on: Pseudokirchneriella subcapitata; test: Algal growth inhibition test (OECD 201); type: cell-based
Method: The in vivo evaluation of compounds (1) and (2) for acute toxicity was performed towards marine bacterium Aliivibrio fischeri, and planktonic crustacean Daphnia magna. The chronic ecotoxicity tests were evaluated using algae Pseudokirchneriella subcapitata and Phaeodactylum tricornutum.
Freshwater and marine algal growth inhibition was assessed using P. subcapitata and P. tricornutum according to OECD Guideline 201 procedures (“Alga, Growth Inhibition Test”), ISO-8692 (“Water quality–Fresh water algal growth inhibition test with unicellular green algae”) and ISO-10253. Briefly, the algae cells were de-immobilized from algal beads using Matrix dissolving medium (Microbiotests), according to the manufacturer’s instructions, and grown in flasks containing algal culturing medium which was prepared following the OECD Guideline 201 and ISO-8692. Flasks with algae were kept for 7 days under light with orbital agitation. When the algae culture had sufficient cells, as verified by the optical density at 670 nm, these were tested at an initial cell density of 1 × 10^6 cells/mL in algal culturing medium. Madeirone (1) and neomarinone (2) were dissolved in DMSO and tested at the concentrations of 100, 50, 25, 12.5, 6.25, 3.13, and 1.56 μg/mL. The algae were cultured in microplates in triplicate and were kept for 4 days under light with orbital agitation. […] Each experiment was performed in triplicate and the results of two independent experiments with <10% SD are presented. Growth inhibition calculations were performed using cell numbers (biomass), as determined by a calibration line. Potassium dichromate (K2Cr2O7) was used as a positive control.

| SMILES | inhibition at 1.95 µg/mL [1] [%] | inhibition at 3.91 µg/mL [1] [%] | inhibition at 7.81 µg/mL [1] [%] | inhibition at 15.6 µg/mL [1] [%] | inhibition at 31.25 µg/mL [1] [%] | Growth inhibition (%) M. luteus ([2]; 15.60 µg/mL) | inhibition at 0.98 µg/mL [3] [%] | inhibition at 1.95 µg/mL [3] [%] | inhibition at 3.91 µg/mL [3] [%] | inhibition at 7.81 µg/mL [3] [%] | inhibition at 15.6 µg/mL [3] [%] | inhibition at 31.25 µg/mL [3] [%] | Biofilm inhibition, up to (highest over tested concentrations) C. marina [4] | inhibition at 0.98 µg/mL [4] [%] | inhibition at 1.95 µg/mL [4] [%] | inhibition at 3.91 µg/mL [4] [%] | inhibition at 7.81 µg/mL [4] [%] | inhibition at 15.6 µg/mL [4] [%] | inhibition at 31.25 µg/mL [4] [%] | Inhibition (%) P. subcapitata (growth) ([5]; 50 µg/mL) [%] | further results |
| --- | --- | --- | --- | --- | --- | --- | --- | --- | --- | --- | --- | --- | --- | --- | --- | --- | --- | --- | --- | --- | --- |
| CC1=CCC[C@@H](C)[C@]1(C)CC[C@@]1(C)c2c(O)cc3c(c2O[C@@H]1C)C(=O)C(C)=C(O)C3=O [compound 2, neomarinone] | 0.3 ± 0.5 | 4.2 ± 0.3 | 0 | 0.9 ± 0.4 | 11.1 ± 0.4 | N.I. | 11.7 ± 6.2 | 13.9 ± 5.7 | 19.4 ± 4 | 26.3 ± 5.9 | 34.9 ± 4.8 | 40.7 ± 4.7 | ≤ 46% | 26.5 ± 3.8 | 24.5 ± 3 | 26.9 ± 3.3 | 34.4 ± 7.4 | 42.6 ± 6.3 | 45.8 ± 2.9 | 9.7 | Growth inhibition (%) P. batsensis ([1]; 0.98 µg/mL): N.I.; Growth inhibition (%) M. luteus ([2]; 31.25 µg/mL): N.I.; inhibition at 0.98 µg/mL ([2]; Micrococcus luteus, 0.98 µg/mL): 1.8 ± 0.4%; inhibition at 1.95 µg/mL ([2]; Micrococcus luteus, 1.95 µg/mL): 3.8 ± 1.7%; inhibition at 3.91 µg/mL ([2]; Micrococcus luteus, 3.91 µg/mL): 9 ± 0.9%; inhibition at 7.81 µg/mL ([2]; Micrococcus luteus, 7.81 µg/mL): 6.8 ± 1%; Biofilm inhibition, up to (highest over tested concentrations) P. batsensis ([3]; 0.98-31.25 µg/mL tested): up to 40%; Inhibition (%) P. subcapitata (growth) ([5]; 100 µg/mL): 26.2% |
| CC1=CCC[C@@H](C)[C@]1(C)CC[C@@]1(C)c2c(O)cc3c(c2O[C@@H]1C)C(=O)C=C(CO)C3=O (relative stereo) [compound 1, madeirone] | 26.6 ± 0.8 | 31 ± 0.7 | 35.9 ± 0.5 | > 40 | > 40 | N.I. | 10.8 ± 1.7 | 17.9 ± 2.4 | 24.9 ± 2.9 | 34.8 ± 2.7 | 49.1 ± 0.7 | 59.2 ± 0.4 | up to 40% | 28.6 ± 23.2 | 31.6 ± 15.3 | 36.3 ± 6.4 | 39.2 ± 5.4 | 41.7 ± 10 | 31 ± 9.6 | 27.3 | inhibition at 0.98 µg/mL ([1]; 0.98 µg/mL): 20.7 ± 1.1%; Growth inhibition (%) M. luteus ([2]; 0.98 µg/mL): N.I.; Growth inhibition (%) M. luteus ([2]; 1.95 µg/mL): N.I.; Growth inhibition (%) M. luteus ([2]; 3.91 µg/mL): N.I.; Growth inhibition (%) M. luteus ([2]; 7.81 µg/mL): N.I.; inhibition at 15.6 µg/mL ([2]; Micrococcus luteus, 15.60 µg/mL): 9.2%; inhibition at 31.25 µg/mL ([2]; Micrococcus luteus, 31.25 µg/mL): 20 ± 0.5%; Inhibition (%) P. subcapitata (growth) ([5]; 25 µg/mL): 9.1%; Inhibition (%) P. subcapitata (growth) ([5]; 100 µg/mL): 52.8% |
